≈ marks a conversion by molar mass, not a printed value. Where two headings read alike, the source gives them in different places. Bridge positions count the residues as written; N and C are the ends. Ends that are not written are not given here. Peptide text beside a SMILES is read from it.
Columns and labels:
[1] = test system: MRSA-OS; assay: microbe, parasite or virus in culture; type: cell-based, Staphylococcus aureus; details: 24 h
Text: (§1) A range of Gram-positive and Gram-negative laboratory- and clinical-strain bacteria were used for the experiments. These included laboratory-strain methicillin-sensitive S. aureus (MSSA; including SH1000 and ATCC SA29213), laboratory-strain MRSA (ATCC MRSA43300), clinical-strain MRSA (MRSA-OS; an IK isolate), laboratory-strain methicillin-sensitive Staphylococcus epidermidis (MSSE; ATCC SE12228), laboratory invasive-strain P. aeruginosa (PAO1-L), and clinical cytotoxic-strain P. aeruginosa (PA-OS; an IK isolate).
(§2) In vitro antimicrobial efficacy of the antibiotics and designed HDPs was determined using an established MIC assay with broth microdilution method approved by the Clinical and Laboratory Standards Institute (CLSI)[64]. Briefly, the microorganisms were cultured on Tryptone Soya Agar (TSA) and incubated overnight for 18–21 h at 37 °C. Bacterial inoculums were subsequently prepared using the direct colony suspension method. Three to five bacterial colonies were obtained from the agar plate and inoculated into an Eppendorf tube containing 1 ml of cation-adjusted Muller-Hinton broth (caMHB), consisting of 20–25 mg/L calcium ions (Ca^2+) and 10–12.5 mg/L magnesium ions (Mg^2+). The bacterial suspension was adjusted to achieve a turbidity equivalent to 0.1 OD600 or 0.5 MacFarland, containing ~ 1.5 × 10^8 colony-forming unit (CFU)/ml, which was then further diluted in 1:150 in caMHB to reach a final bacterial concentration of ~ 1 × 10^6 colony forming units (CFU)/ml. Each treatment (peptide or antibiotic) was prepared in 1:2 serial dilution in 96-well polypropylene microplates (with a final treatment volume of 50 μl per well), followed by the addition of 50 μl of 1 × 10^6 CFU/ml bacteria into each well (with a final bacterial concentration of 5 × 10^5 CFU/ml).

[2] = test system: S. aureus SH1000; assay: microbe, parasite or virus in culture; type: cell-based, Staphylococcus aureus; details: caMHB, 24 h, read-out: MIC
Text: as §1, §2

[3] = test system: P. aeruginosa PA-OS; assay: microbe, parasite or virus in culture; type: cell-based; details: 24 h
Text: as §1, §2

[4] = test system: P. aeruginosa PAO1-L; assay: microbe, parasite or virus in culture; type: cell-based
Text: as §1, §2

[5] = test system: human corneal epithelial cells (HCE-2); assay: cells; type: cell-based; details: 3 h
Experimental: Cell viability and cytotoxicity of antibiotics and peptides were determined against human corneal epithelial cells (HCE-2, CRL-11135, ATCC, Manassas, Virginia, USA) using cell-counting-kit-8 (CCK-8) assay (Sigma Aldrich, Merck Life Science UK Limited, Dorset, UK) and lactate dehydrogenase (LDH) assay (ThermoFisher Scientific, UK), respectively, as per manufacturer’s guidelines. HCE-2 cells were cultured and seeded into a 96-well plate at a density of 7.5 × 10^3 cells/well and allowed to attach overnight and grew to 80–90% confluency in keratinocyte serum free medium (KSFM) supplemented with human recombinant epidermal growth factor, bovine pituitary extract, hydrocortisone, and insulin. Once the confluency reached 80–90%, the cells were incubated with treatment for 3 h before OD450 measurement was taken using BMG Clariostar microplate reader (BMG Labtech Ltd., Aylesbury, UK). Appropriate controls were used, including 0.1% Triton X-100 as positive control and KSFM as negative control. Cell viability was calculated using the following formula: [([…]) × 100; I = intensity] and cytotoxicity was calculated using the following formula: [((Itreatment – INC)/(IPC – INC)) × 100].

[6] = test system: Gram-positive or Gram-negative bacteria; assay: MIC assay, all tested organisms summarised; type: cell-based; details: summary over the organisms tested, without salt
Text: as §1
In vitro antimicrobial efficacy of the antibiotics and designed HDPs was determined using an established MIC assay with broth microdilution method approved by the Clinical and Laboratory Standards Institute (CLSI)[64]. Briefly, the microorganisms were cultured on Tryptone Soya Agar (TSA) and incubated overnight for 18–21 h at 37 °C. Bacterial inoculums were subsequently prepared using the direct colony suspension method. Three to five bacterial colonies were obtained from the agar plate and inoculated into an Eppendorf tube containing 1 ml of cation-adjusted Muller-Hinton broth (caMHB), consisting of 20–25 mg/L calcium ions (Ca^2+) and 10–12.5 mg/L magnesium ions (Mg^2+). […]

[7] = 0 mM NaCl, caMHB, read-out: MIC

Compound	MIC [1, 7] [µM]	MIC ([1]; -OS) [µg/mL]	MIC ([2]; 0 mM NaCl) [µM]	MIC ([2]; 150 mM NaCl) [µM]	MIC [3, 7] [µM]	MIC ([3]; PA-OS) [µg/mL]	MIC ([4]; 0 mM NaCl, caMHB, 24 h, read-out: MIC) [µM]	MIC ([4]; PAO1, 24 h) [µg/mL]	IC50 (concentration causing 50% inhibition of cell viability) [5] [µg/mL]	Imax (%): percentage of inhibition of cell viability at 200 µg/ml ([5]; HCE-2, CCK-8 assay, 200 µg/ml, mean (SD))	MIC [6] [µg/mL]
CC[C@H](C)[C@H](NC(=O)[C@H](CCCNC(=N)N)NC(=O)[C@H](CCC(N)=O)NC(=O)[C@@H](NC(=O)[C@@H](NC(=O)[C@H](CCCNC(=N)N)NC(=O)[C@@H](N)CCCCN)[C@@H](C)CC)C(C)C)C(=O)N[C@@H](CCCCN)C(=O)N[C@@H](CC(=O)O)C(=O)N[C@@H](Cc1c[nH]c2ccccc12)C(=O)N[C@@H](CC(C)C)C(=O)N[C@@H](CCCNC(=N)N)C(=O)N[C@@H](CCCCN)C(=O)N[C@@H](CS)C(=O)N[C@@H](CS)C(=O)N[C@@H](CCCCN)C(=O)N[C@@H](CCCCN)C(=O)N1CCC[C@H]1C(=O)O [CaD22, KRIVQRIKDW LRKCCKKP] (H-KRIVQRIKDWLRKCCKKP-OH; N-terminus and C-terminus assumed)	> 87.0	> 200	43.5 (≈ 100 µg/mL)	> 87.0	87.0	200	87.0	200	> 200	34.3 (8.2) %	
GIGDPVTCLKSGAICHPVFCPRRYKQIGTCGLPGTKCCKKP (disulfide 8-37, 15-30, 20-38 (inferred)) [HBD2, GIGDPVTCLKSGAICHPVFCPRRYKQIGTCGLPGTKCCKKP]											100
